Assays:
MALME-3M = assay: in vitro melanoma cell growth inhibition (NCI screen)
M19-MEL = assay: as above
UACC-257 = assay: as above
CCRF-CEM = assay: in vitro leukemia cell growth inhibition (NCI screen)
HL-60(TB) = assay: as above
RPMI-8226 = assay: as above
SF-539 = assay: in vitro CNS cancer cell growth inhibition (NCI screen)
SNB-75 = assay: as above
ACHN = assay: in vitro renal cancer cell growth inhibition (NCI screen)
RXF-631 = assay: as above
UO-31 = assay: as above
HOP-92 = assay: in vitro non-small cell lung cancer cell growth inhibition (NCI screen)
NCI-H460 = assay: as above
NCI-H522 = assay: as above
human tumor cell lines = assay type: cell-based; settings: cancer cell line panel
SK-MEL-2 = assay: in vitro melanoma cell growth inhibition (NCI screen)
UACC-62 = assay: as above
SF-268 = assay: in vitro CNS cancer cell growth inhibition (NCI screen)
SF-295 = assay: as above
SNB-19 = assay: as above
U 251 = assay: as above
DLD-1 = assay: in vitro colon cancer cell growth inhibition (NCI screen)
HCT-15 = assay: as above
786-0 = assay: in vitro renal cancer cell growth inhibition (NCI screen)
RXF-393 = assay: as above
OVCAR-3 = assay: in vitro ovarian cancer cell growth inhibition (NCI screen)
HOP-62 = assay: in vitro non-small cell lung cancer cell growth inhibition (NCI screen)
LOX1MVI = assay: in vitro melanoma cell growth inhibition (NCI screen)
M14 = assay: as above
K-562 = assay: in vitro leukemia cell growth inhibition (NCI screen)
MOLT-4 = assay: as above
XF-498 = assay: in vitro CNS cancer cell growth inhibition (NCI screen)
SW 620 = assay: in vitro colon cancer cell growth inhibition (NCI screen)
CAKI-1 = assay: in vitro renal cancer cell growth inhibition (NCI screen)
HOP-18 = assay: in vitro non-small cell lung cancer cell growth inhibition (NCI screen)
NCI-H266 = assay: as above
LXFL 529 = assay: as above
SK-MEL-28 = assay: in vitro melanoma cell growth inhibition (NCI screen)
SK-MEL-5 = assay: as above
HCT-116 = assay: in vitro colon cancer cell growth inhibition (NCI screen)
KM 12 = assay: as above
SN12C = assay: in vitro renal cancer cell growth inhibition (NCI screen)
TK-10 = assay: as above
OVCAR-4 = assay: in vitro ovarian cancer cell growth inhibition (NCI screen); settings: OVACR-4
MDA-N = assay: in vitro breast cancer cell growth inhibition (NCI screen)
PC-3 = assay: in vitro prostate cancer cell growth inhibition (NCI screen)
EKVX = assay: in vitro non-small cell lung cancer cell growth inhibition (NCI screen)
COLO-205 = assay: in vitro colon cancer cell growth inhibition (NCI screen)
NCI-H23 = assay: in vitro non-small cell lung cancer cell growth inhibition (NCI screen)
MCF-7 = assay: in vitro breast cancer cell growth inhibition (NCI screen)
SR = assay: in vitro leukemia cell growth inhibition (NCI screen)

SMILES	cytotoxicity log GI50 (MALME-3M) [M]	cytotoxicity log GI50 (M19-MEL) [M]	cytotoxicity log GI50 (UACC-257) [M]	cytotoxicity log GI50 (CCRF-CEM) [M]	cytotoxicity log GI50 (HL-60(TB)) [M]	cytotoxicity log GI50 (RPMI-8226) [M]	cytotoxicity log GI50 (SF-539) [M]	cytotoxicity log GI50 (SNB-75) [M]	cytotoxicity log GI50 (RXF-631) [M]	cytotoxicity log GI50 (HOP-92) [M]	cytotoxicity log GI50 (NCI-H522) [M]	cytotoxicity log GI50 (SK-MEL-2) [M]	cytotoxicity log GI50 (UACC-62) [M]	cytotoxicity log GI50 (DLD-1) [M]	cytotoxicity log GI50 (RXF-393) [M]	cytotoxicity log GI50 (OVCAR-3) [M]	cytotoxicity log GI50 (MOLT-4) [M]	cytotoxicity log GI50 (HCT-116) [M]	cytotoxicity log GI50 (OVCAR-4) [M]	other results
CCn1c(Cc2ccc(F)cc2)nc2c1C(=O)c1ccccc1C2=O [Compound 66]	-4.94	-5.02	-5.10	-5.08	-5.33	-4.94	-4.88	-4.80	-4.82	-4.97	-5.06	–	–	–	–	–	–	–	–	cytotoxicity log GI50 (ACHN): -4.85 M; cytotoxicity log GI50 (UO-31): -5.33 M; cytotoxicity log GI50 (NCI-H460): -4.90 M
NC1=C(NC(=O)Cc2ccccc2F)C(=O)c2ccccc2C1=O [Compound 3b]	-4.87	-5.35	-4.53	–	–	–	-4.57	-4.73	–	-4.65	-4.67	-4.84	-4.42	-4.78	-4.46	-5.08	–	–	–	cytotoxicity against tumor cells (in words) (human tumor cell lines): inactive against all representative cancer cell lines; cytotoxicity log GI50 (SF-268): -4.46 M; cytotoxicity log GI50 (SF-295): -4.49 M; cytotoxicity log GI50 (SNB-19): -4.45 M; cytotoxicity log GI50 (U 251): -4.44 M; cytotoxicity log GI50 (HCT-15): -4.62 M; cytotoxicity log GI50 (786-0): -4.57 M; cytotoxicity log GI50 (HOP-62): -4.59 M
CC(=O)NC1=C(NC(C)(C)C)C(=O)c2ccccc2C1=O [Compound 32]	–	-4.81	-4.80	-5.63	-5.65	-4.93	-4.80	-4.86	–	–	–	–	-4.86	-4.80	–	-4.81	-5.19	–	–	cytotoxicity log GI50 (LOX1MVI): -4.78 M; cytotoxicity log GI50 (M14): -4.77 M; cytotoxicity log GI50 (K-562): -5.14 M; cytotoxicity log GI50 (XF-498): -4.95 M; cytotoxicity log GI50 (HCT-15): -4.76 M; cytotoxicity log GI50 (SW 620): -4.85 M; cytotoxicity log GI50 (786-0): -5.47 M; cytotoxicity log GI50 (CAKI-1): -4.79 M; cytotoxicity log GI50 (HOP-18): -4.83 M; cytotoxicity log GI50 (NCI-H266): -4.84 M; cytotoxicity log GI50 (LXFL 529): -4.82 M
CCNC1=C(NC(=O)CCl)C(=O)c2ccccc2C1=O [Compound 44]	–	–	–	–	–	–	–	–	–	–	-4.82	–	–	–	-4.78	-4.75	–	-4.74	-4.77	cytotoxicity log GI50 (SK-MEL-28): -4.75 M; cytotoxicity log GI50 (SK-MEL-5): -4.78 M; cytotoxicity log GI50 (KM 12): -4.77 M; cytotoxicity log GI50 (SN12C): -4.75 M; cytotoxicity log GI50 (TK-10): -4.75 M; cytotoxicity log GI50 (MDA-N): -4.81 M; cytotoxicity log GI50 (PC-3): -4.80 M; cytotoxicity log GI50 (EKVX): -4.80 M; cytotoxicity log GI50 (HOP-62): -4.78 M
COc1ccc(CNC2=C(NC(C)=O)C(=O)c3ccccc3C2=O)cc1 [Compound 41]	-5.08	-5.02	-5.06	-5.06	-5.77	–	-5.13	–	-5.19	-5.18	-5.86	-5.04	-5.11	-5.07	–	-5.09	-5.43	-5.29	-5.09	cytotoxicity log GI50 (LOX1MVI): -5.07 M; cytotoxicity log GI50 (SK-MEL-5): -5.13 M; cytotoxicity log GI50 (K-562): -5.11 M; cytotoxicity log GI50 (COLO-205): -5.03 M; cytotoxicity log GI50 (SW 620): -5.09 M; cytotoxicity log GI50 (ACHN): -5.68 M; cytotoxicity log GI50 (UO-31): -5.02 M; cytotoxicity log GI50 (NCI-H23): -5.17 M
O=C(O)CCCc1nc2c(n1Cc1ccccc1)C(=O)c1ccccc1C2=O [Compound 57]	-4.80	–	-4.60	-5.28	-4.54	-4.73	–	–	–	–	-4.53	-4.83	-4.76	–	–	-4.67	–	-4.54	-4.69	cytotoxicity log GI50 (M14): -5.43 M; cytotoxicity log GI50 (SF-268): -4.58 M; cytotoxicity log GI50 (SF-295): -4.59 M; cytotoxicity log GI50 (MCF-7): -4.53 M; cytotoxicity log GI50 (MDA-N): -4.65 M; cytotoxicity log GI50 (EKVX): -4.50 M; cytotoxicity log GI50 (NCI-H23): -4.50 M
CCC(c1ccc(F)cc1)c1nc2c(n1CC)C(=O)c1ccccc1C2=O (stereo not drawn) [Compound 65]	–	–	–	–	-4.74	-4.68	–	–	-4.71	-4.75	–	-4.77	-4.95	-5.69	-4.83	–	-4.73	–	–	cytotoxicity log GI50 (SR): -4.73 M; cytotoxicity log GI50 (U 251): -4.71 M; cytotoxicity log GI50 (XF-498): -4.70 M; cytotoxicity log GI50 (SN12C): -4.90 M; cytotoxicity log GI50 (NCI-H266): -4.82 M
